Where “and” joins values, the source holds several entries; their conditions need not be identical. Equal entries are not always repeated.
What was measured:
[1] = molecular target: T1, ~100 representative kinases (Homo sapiens, UniProt P54762); assay: DSF 100 kinase selectivity screen; assay type: binding; conditions: Protein EPHB1; average of three replicates;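 note: compound tested at 20 µM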
T1 construct: Recombinant protein kinase domains with a concentration of 2 μM
T1 sequence (P54762 18-984): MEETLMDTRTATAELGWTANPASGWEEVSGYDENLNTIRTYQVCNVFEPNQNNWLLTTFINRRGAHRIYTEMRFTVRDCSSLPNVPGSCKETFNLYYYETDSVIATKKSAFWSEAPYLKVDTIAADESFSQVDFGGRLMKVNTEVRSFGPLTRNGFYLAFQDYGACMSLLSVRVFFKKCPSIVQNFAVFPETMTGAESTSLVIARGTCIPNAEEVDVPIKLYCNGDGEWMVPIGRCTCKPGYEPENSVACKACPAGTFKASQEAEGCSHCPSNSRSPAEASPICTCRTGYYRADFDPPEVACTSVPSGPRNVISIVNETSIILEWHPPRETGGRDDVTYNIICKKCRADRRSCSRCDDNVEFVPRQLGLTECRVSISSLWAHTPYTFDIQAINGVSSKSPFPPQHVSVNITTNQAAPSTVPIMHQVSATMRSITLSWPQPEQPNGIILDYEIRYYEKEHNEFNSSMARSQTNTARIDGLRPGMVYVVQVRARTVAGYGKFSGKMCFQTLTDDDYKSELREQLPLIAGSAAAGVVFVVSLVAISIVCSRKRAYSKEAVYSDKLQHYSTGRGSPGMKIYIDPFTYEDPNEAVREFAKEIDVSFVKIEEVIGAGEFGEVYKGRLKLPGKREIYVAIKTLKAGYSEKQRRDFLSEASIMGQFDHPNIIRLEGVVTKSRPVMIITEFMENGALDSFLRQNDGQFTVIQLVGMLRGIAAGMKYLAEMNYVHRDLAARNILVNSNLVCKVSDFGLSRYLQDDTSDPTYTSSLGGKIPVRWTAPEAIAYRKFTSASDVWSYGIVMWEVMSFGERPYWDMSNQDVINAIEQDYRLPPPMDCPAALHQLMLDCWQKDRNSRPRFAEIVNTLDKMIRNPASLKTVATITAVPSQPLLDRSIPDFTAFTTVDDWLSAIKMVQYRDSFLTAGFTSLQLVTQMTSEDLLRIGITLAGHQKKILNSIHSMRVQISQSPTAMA
Procedure, shortened: (§1)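 Each kinase domain, at 2 μM, is mixed with 20 μM test compound and SYPRO Orange in Hepes (20 mM, pH 7.5) with 500 mM NaCl. Temperature is then raised at 3°C/min and fluorescence-monitored unfolding yields the melting temperature change, ΔTm in degrees Celsius.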

[2] = molecular target: T2, ~100 representative kinases (Homo sapiens, UniProt Q13557); assay: DSF 100 kinase selectivity screen; assay type: binding; conditions: Protein CAMK2D; average of three replicates;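 note: compound tested at 20 µM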
T2 construct: Recombinant protein kinase domains with a concentration of 2 μM
T2 sequence (Q13557 whole entry, the tested form may be a part): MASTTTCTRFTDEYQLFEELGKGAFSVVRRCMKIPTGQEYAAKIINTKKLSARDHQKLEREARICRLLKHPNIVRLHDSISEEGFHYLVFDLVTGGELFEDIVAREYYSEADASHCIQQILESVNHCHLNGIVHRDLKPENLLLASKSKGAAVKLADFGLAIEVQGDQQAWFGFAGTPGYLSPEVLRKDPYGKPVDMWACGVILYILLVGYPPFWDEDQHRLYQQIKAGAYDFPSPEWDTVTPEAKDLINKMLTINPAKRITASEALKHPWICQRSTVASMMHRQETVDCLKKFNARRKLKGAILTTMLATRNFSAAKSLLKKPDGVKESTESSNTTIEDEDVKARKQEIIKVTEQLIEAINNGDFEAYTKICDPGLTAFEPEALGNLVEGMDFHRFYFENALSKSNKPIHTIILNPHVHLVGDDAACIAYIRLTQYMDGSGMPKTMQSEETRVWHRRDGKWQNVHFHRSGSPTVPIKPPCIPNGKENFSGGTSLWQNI
Procedure, shortened: as §1

LRRK2^RCKW = molecular target: T3, LRRK2^RCKW (Homo sapiens, UniProt Q5S007); assay: Biochemical LRRK2 activity assay (PhosphoSense, AssayQuant SOX peptide AQT0615); conditions: for IC50: LRRK2^RCKW kinase activity, in vitro; for normalized response (LRRK2 activity): normalized to 0% (no kinase) and 100% (no inhibitor) control, two singlicate columns per compound
T3 construct: LRRK2 R1327 to E2527; His6-Z-tag (TEV cleavable) (N, cleaved yes); host or cells: Sf9 insect cells (baculovirus)
T3 sequence (Q5S007 1327-2527): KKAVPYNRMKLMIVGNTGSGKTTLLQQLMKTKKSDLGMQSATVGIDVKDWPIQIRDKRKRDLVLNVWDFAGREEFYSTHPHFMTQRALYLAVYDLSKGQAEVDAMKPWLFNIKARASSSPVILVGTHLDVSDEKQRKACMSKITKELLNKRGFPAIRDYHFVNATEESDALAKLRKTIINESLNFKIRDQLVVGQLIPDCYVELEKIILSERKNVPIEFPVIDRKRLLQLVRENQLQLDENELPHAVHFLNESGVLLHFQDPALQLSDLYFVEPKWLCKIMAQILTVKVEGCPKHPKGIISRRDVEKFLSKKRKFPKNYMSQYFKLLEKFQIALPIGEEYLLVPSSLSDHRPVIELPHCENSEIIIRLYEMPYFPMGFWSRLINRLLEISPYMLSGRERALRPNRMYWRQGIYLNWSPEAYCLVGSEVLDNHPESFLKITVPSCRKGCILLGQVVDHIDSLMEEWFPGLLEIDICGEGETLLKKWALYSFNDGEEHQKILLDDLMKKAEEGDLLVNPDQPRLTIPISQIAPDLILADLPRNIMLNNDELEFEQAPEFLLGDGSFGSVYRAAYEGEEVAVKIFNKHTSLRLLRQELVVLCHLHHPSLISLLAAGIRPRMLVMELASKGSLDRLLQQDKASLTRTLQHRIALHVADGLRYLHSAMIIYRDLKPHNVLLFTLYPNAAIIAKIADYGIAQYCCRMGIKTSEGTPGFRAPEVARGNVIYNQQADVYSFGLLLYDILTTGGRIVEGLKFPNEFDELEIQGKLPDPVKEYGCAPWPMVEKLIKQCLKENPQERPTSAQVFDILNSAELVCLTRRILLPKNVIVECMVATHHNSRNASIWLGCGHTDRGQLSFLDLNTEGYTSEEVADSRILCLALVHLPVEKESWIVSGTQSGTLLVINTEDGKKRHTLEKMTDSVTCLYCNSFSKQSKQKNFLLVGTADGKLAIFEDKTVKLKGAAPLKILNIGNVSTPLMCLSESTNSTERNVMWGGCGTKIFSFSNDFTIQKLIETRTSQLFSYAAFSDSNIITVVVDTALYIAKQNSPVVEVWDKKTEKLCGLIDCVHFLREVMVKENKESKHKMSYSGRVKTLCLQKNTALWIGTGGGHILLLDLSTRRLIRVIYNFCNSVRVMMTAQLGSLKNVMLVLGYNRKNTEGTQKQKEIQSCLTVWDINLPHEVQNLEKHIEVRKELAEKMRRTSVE
Procedure, shortened: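 Controls lacked protein and compound (0%) or compound only (100%). IC50 derived by nonlinear regression of normalized response versus log[inhibitor].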

| SMILES | dTm [1] [K] | dTm [2] [K] | IC50 (LRRK2^RCKW) [nM] | normalized response (LRRK2 activity) (LRRK2^RCKW; log[inhibitor(mol)] -4.82391) | normalized response (LRRK2 activity) (LRRK2^RCKW; log[inhibitor(mol)] -5.12494) | normalized response (LRRK2 activity) (LRRK2^RCKW; log[inhibitor(mol)] -5.60206) | normalized response (LRRK2 activity) (LRRK2^RCKW; log[inhibitor(mol)] -6.30103) | normalized response (LRRK2 activity) (LRRK2^RCKW; log[inhibitor(mol)] -6.90309) | normalized response (LRRK2 activity) (LRRK2^RCKW; log[inhibitor(mol)] -7.30103) | normalized response (LRRK2 activity) (LRRK2^RCKW; log[inhibitor(mol)] -7.60206) | normalized response (LRRK2 activity) (LRRK2^RCKW; log[inhibitor(mol)] -8.09691) | normalized response (LRRK2 activity) (LRRK2^RCKW; log[inhibitor(mol)] -8.61979) | normalized response (LRRK2 activity) (LRRK2^RCKW; log[inhibitor(mol)] -9.09691) | normalized response (LRRK2 activity) (LRRK2^RCKW; log[inhibitor(mol)] -9.39794) |
| --- | --- | --- | --- | --- | --- | --- | --- | --- | --- | --- | --- | --- | --- | --- |
| O=C(Nc1cccc(-c2c[nH]c3ncnc(N4CCOCC4)c23)c1)C1(C(=O)Nc2cc(Br)c(F)cc2F)CC1 [Compound 25] | -4.24 | 1.32 | 818 ± 56 | 4.179% and 4.042% | 6.886% and 2.089% | 16.9372% and 25.3493% | 61.5503% and 64.2768% | 87.889% and 62.9679% | 95.1314% and 96.4468% | 95.9663% and 100.454% | 95.3684% and 96.0989% | 98.0471% and 98.2841% | 97.884% and 98.6428% | 99.7517% and 70.9452% |
| O=C(Nc1cccc(-c2c[nH]c3ncnc(N4CCOCC4)c23)c1)C1(C(=O)Nc2ccc(F)c(Br)c2F)CC1 [Compound 26] | -6.10 | 1.25 | 134 ± 5 | 1.939% and 8.5359% | 9.123% and 11.3015% | 44.4326% and 42.5431% | 13.6454% and 21.2987% | 53.1512% and 54.1949% | 78.8268% and 70.6625% | 83.0818% and 80.8923% | 91.3569% and 90.9395% | 93.5464% and 85.6887% | 97.2382% and 103.098% | 97.1774% and 94.1421% |
| O=C(Nc1cc(F)cc(Br)c1)C1(C(=O)Nc2cccc(-c3c[nH]c4ncnc(N5CCOCC5)c34)c2)CC1 [Compound 27] | -2.93 | 0.42 | 1960 ± 652 | 9.9531% and 0.1682% | 15.329% and 15.4402% | 51.4182% and 54.957% | 74.2368% and 85.6074% | 93.8115% and 94.6865% | 93.6955% and 101.281% | 91.0994% and 95.9483% | 92.7092% and 88.0778% | 94.7784% and 93.0186% | 131.133% and 93.2265% | 94.4883% and 98.7958% |
| CC(C)(C)c1cc(NC(=O)Nc2cccc(-c3c[nH]c4ncnc(N5CCOCC5)c34)c2)n(-c2ccc3ncccc3c2)n1 [Compound 28] | 11.35 | 0.51 | 59.7 ± 2.9 | 3.992% and -4.217% | -4.603% and -7.6443% | -5.899% and -7.93% | -0.5957% and -1.998% | 20.6807% and 19.3416% | 54.9087% | 83.9541% and 76.0062% | 102.755% and 100.691% | 109.195% and 109.069% | 110.935% and 112.883% | 72.3369% and 118.777% |
| Cc1ccc(-n2nc(C(C)(C)C)cc2NC(=O)Nc2cccc(-c3c[nH]c4ncnc(N5CCOCC5)c34)c2)cc1 [Compound 29] | 5.08 | -0.40 | 20.2 ± 0.01 | – | -15.0137% and -16.6919% | -14.1253% and -13.1052% | -11.8493% and -10.5551% | -5.6961% and -4.1002% | 9.533% and 17.3374% | 45.8935% and 45.9868% | 84.3047% and 80.6906% | 106.121% and 110.711% | 109.51% and 103.466% | 104.536% and 110.261% |
| Cc1ccc(-n2nc(C(C)(C)C)cc2NC(=O)Nc2cccc(-c3c[nH]c4nc(Cl)nc(N5CCOCC5)c34)c2)cc1 [Compound 30] | -0.80 | -0.81 | 135 ± 2 | – | -8.095% and -6.809% | 75.5755% and 70.6669% | 8.742% and 11.7467% | 50.7191% and 51.183% | 75.6682% and 82.0657% | 86.9301% and 90.6015% | 94.0388% and 92.0065% | 101.276% and 93.5219% | 104.187% and 96.8267% | 100.869% and 63.9823% |

Reference: publication PMC12136037, “Type II kinase inhibitors that target Parkinson’s disease–associated LRRK2” (Science Advances, 2025)
